Read-outs that look alike come from different tables or passages of the source.
Assays:
CBL-B (residues 36-427) = molecular target: T1, CBL-B (residues 36-427) (Homo sapiens, UniProt Q13191); experiment: Ligand Displacement Assay (LDA), HTRF competitive binding against BODIPY-labeled fluorescent tracer, CBL-B; conditions: geometric mean of the number of tests, read-out: CBL-B Ki (nM) GMean
T1 construct: Purified CBL-B (residues 36-427) and C-CBL (residues 46-435) proteins from baculovirus-infected insect cells; made in house; host or cells: baculovirus-infected insect cells
Method in brief: (§1)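 Competition with a BODIPY fluorescent tracer was read by HTRF, each protein carrying an N-terminal biotinylated AviTag bound to Tb-streptavidin. Tracer KD values were set beforehand per protein; Ki derives from duplicate three-fold compound series ([…], 2% DMSO), averaged geometrically across tests.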

C-CBL (residues 46-435) = molecular target: T2, C-CBL (residues 46-435) (Homo sapiens, UniProt P22681); experiment: Ligand Displacement Assay (LDA), HTRF competitive binding against BODIPY-labeled fluorescent tracer, C-CBL; conditions: geometric mean of the number of tests, read-out: C-CBL Ki (nM) GMean
T2 construct: Purified CBL-B (residues 36-427) and C-CBL (residues 46-435) proteins from baculovirus-infected insect cells; made in house; host or cells: baculovirus-infected insect cells
T2 sequence (P22681 46-435): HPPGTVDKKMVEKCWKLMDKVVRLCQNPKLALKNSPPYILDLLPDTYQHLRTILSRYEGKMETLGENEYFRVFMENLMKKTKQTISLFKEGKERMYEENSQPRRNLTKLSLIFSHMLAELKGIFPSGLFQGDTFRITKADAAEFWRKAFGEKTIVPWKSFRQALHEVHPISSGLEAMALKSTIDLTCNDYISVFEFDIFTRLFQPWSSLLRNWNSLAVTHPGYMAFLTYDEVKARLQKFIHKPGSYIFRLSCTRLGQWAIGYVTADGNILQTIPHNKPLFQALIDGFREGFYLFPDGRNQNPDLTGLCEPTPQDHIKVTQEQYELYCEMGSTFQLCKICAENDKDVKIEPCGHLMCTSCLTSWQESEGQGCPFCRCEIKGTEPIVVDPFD
Method in brief: as §1

CBL-B = molecular target: T3, CBL-B (Homo sapiens, UniProt Q13191); experiment: Jurkat HiBit-IL2 assay (c-CBL KO), reporter cell line expressing CBL-B only; assay type: cell-based; conditions: geometric mean, read-out: C-CBL KO EC50 (nM) GMean
T3 construct: endogenous in cells; host or cells: Jurkat HiBit-IL2 reporter cells, C-CBL knocked out by CRISPR
Method in brief: (§2)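 CRISPR knockout Jurkat HiBit-IL2 reporter cells (20,000/well) were preincubated 1 h with compounds (0.1% DMSO), then stimulated 4 h at 37 °C with anti-CD3 (1 μg/ml) and anti-CD28 (2 μg/ml) final. IL-2 was read by HiBiT lytic luminescence, normalized as fold over antibody-only baseline; EC50 reported as geometric mean.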

C-CBL = molecular target: T4, C-CBL (Homo sapiens, UniProt P22681); experiment: Jurkat HiBit-IL2 assay (CBL-B KO), reporter cell line expressing C-CBL only; assay type: cell-based; conditions: geometric mean, read-out: CBL-B KO EC50 (nM) GMean
T4 construct: endogenous in cells; host or cells: Jurkat HiBit-IL2 reporter cells, CBL-B knocked out by CRISPR
Method in brief: as §2

[1] = c-CBL KO (CBL-B only), anti-CD3/anti-CD28 stimulation 4 hours, Table 16a
[2] = CBL-B KO (C-CBL only), anti-CD3/anti-CD28 stimulation 4 hours, Table 16a
[3] = C-CBL KO (expressing CBL-B only), Table 16b (further repetition)
[4] = CBL-B KO (expressing C-CBL only), Table 16b (further repetition)

Cn1cnnc1[C@@H](c1cccc(-c2n[nH]c3c(CNC4CCCC4)nc(C(F)(F)F)cc23)c1)C1CCC1 [Example D4]
Ki (CBL-B (residues 36-427)): 5.1 nM | Ki (C-CBL (residues 46-435)): 54.8 nM | EC50 (CBL-B; [1]): 72 nM | EC50 (C-CBL; [2]): 479 nM

C[C@H]1CN(Cc2nc(C(F)(F)F)cc3c(-c4cccc([C@H](c5nncn5C)C5CCC5)c4)n[nH]c23)CCO1 [Example C6, 3-{3-[(R)-cyclobutyl(4-methyl-4H-1,2,4-triazol-3-yl)methyl]phenyl}-7-{[(2S)-2-methylmorpholin-4-yl]methyl}-5-(trifluoromethyl)-1H-pyrazolo[3,4-c]pyridine]
Ki (CBL-B (residues 36-427)): 25.8 nM | Ki (C-CBL (residues 46-435)): 256 nM | EC50 (CBL-B; [1]): 115 nM | EC50 (C-CBL; [2]): 807 nM

C[C@@H](N[C@@H]1CCC(F)(F)C1)c1nc(C(F)(F)F)cc2c(-c3cccc(C4(Cc5nncn5C)COC4)c3)n[nH]c12 (single isomer, unassigned) [Example C18]
Ki (CBL-B (residues 36-427)): 2.2 nM | Ki (C-CBL (residues 46-435)): 15.1 nM | EC50 (CBL-B; [3]): 19 nM | EC50 (CBL-B; [1]): 17 nM | EC50 (C-CBL; [2]): 178 nM | EC50 (C-CBL; [4]): 49 nM

C[C@H](c1nc(C(F)(F)F)cc2c(-c3cccc(C4(Cc5nncn5C)COC4)c3)n[nH]c12)N1C[C@@H](F)[C@H](F)C1 (single isomer, unassigned) [Example C26]
Ki (CBL-B (residues 36-427)): 40.5 nM | Ki (C-CBL (residues 46-435)): 198 nM | EC50 (CBL-B; [1]): 172 nM | EC50 (C-CBL; [2]): 1850 nM

C[C@@H](c1nc(C(F)(F)F)cc2c(-c3cccc(C4(Cc5nncn5C)COC4)c3)n[nH]c12)N1C[C@H](F)[C@@H](F)C1 (single isomer, unassigned) [Example D7]
Ki (CBL-B (residues 36-427)): 7.4 nM | Ki (C-CBL (residues 46-435)): 28.1 nM | EC50 (CBL-B; [1]): 80 nM | EC50 (C-CBL; [2]): 380 nM

C[C@@H](N[C@H]1CCC(F)(F)C1)c1nc(C(F)(F)F)cc2c(-c3cccc([C@H](c4nncn4C)C4CCC4)c3)n[nH]c12 [Example C9]
Ki (CBL-B (residues 36-427)): 5 nM | Ki (C-CBL (residues 46-435)): 85.2 nM | EC50 (CBL-B; [3]): 32 nM | EC50 (CBL-B; [1]): 32 nM | EC50 (C-CBL; [2]): 606 nM | EC50 (C-CBL; [4]): 176 nM

CC1CN(Cc2nc(C(F)(F)F)cc3c(-c4cccc(C5(Cc6nncn6C)COC5)c4)n[nH]c23)CCC1(F)F (single isomer, unassigned) [Example C31, 7-{[(3ξ)-4,4-difluoro-3-methylpiperidin-1-yl]methyl}-3-(3-{3-[(4-methyl-4H-1,2,4-triazol-3-yl)methyl]oxetan-3-yl}phenyl)-5-(trifluoromethyl)-1H-pyrazolo[3,4-c]pyridine]
Ki (CBL-B (residues 36-427)): 21.7 nM | Ki (C-CBL (residues 46-435)): 112 nM | EC50 (CBL-B; [1]): 166 nM | EC50 (C-CBL; [2]): 1370 nM

C[C@H](NC1CC[C@H]1O)c1nc(C(F)(F)F)cc2c(-c3cccc([C@H](c4nncn4C)C4CCC4)c3)n[nH]c12 (single isomer, unassigned) [Example D30]
Ki (CBL-B (residues 36-427)): 0.6 nM | Ki (C-CBL (residues 46-435)): 5.1 nM | EC50 (CBL-B; [3]): 10 nM | EC50 (CBL-B; [1]): 3 nM | EC50 (C-CBL; [2]): 43 nM | EC50 (C-CBL; [4]): 52 nM

Cn1cnnc1CC1(c2cccc(-c3n[nH]c4c(CN5CCCCC5)nc(C(F)(F)F)cc34)c2)COC1 [Example C33, 3-(3-{3-[(4-methyl-4H-1,2,4-triazol-3-yl)methyl]oxetan-3-yl}phenyl)-7-[(piperidin-1-yl)methyl]-5-(trifluoromethyl)-1H-pyrazolo[3,4-c]pyridine]
Ki (CBL-B (residues 36-427)): 22.6 nM | Ki (C-CBL (residues 46-435)): 111 nM | EC50 (CBL-B; [1]): 116 nM | EC50 (C-CBL; [2]): 1840 nM

C[C@H](c1nc(C(F)(F)F)cc2c(-c3cccc(C4(Cc5nncn5C)COC4)c3)n[nH]c12)N1CCO[C@@H](C)C1 (single isomer, unassigned) [Example D12]
Ki (CBL-B (residues 36-427)): 15.3 nM | Ki (C-CBL (residues 46-435)): 52.9 nM | EC50 (CBL-B; [1]): 612 nM | EC50 (C-CBL; [2]): 973 nM

C[C@H](N[C@H]1CCC[C@@H]1O)c1nc(C(F)(F)F)cc2c(-c3cccc([C@H](c4nncn4C)C4CCC4)c3)n[nH]c12 (single isomer, unassigned) [Example C47]
Ki (CBL-B (residues 36-427)): 0.7 nM | Ki (C-CBL (residues 46-435)): 5 nM | EC50 (CBL-B; [3]): 11 nM | EC50 (CBL-B; [1]): 5 nM | EC50 (C-CBL; [2]): 105 nM | EC50 (C-CBL; [4]): 76 nM

CC(C)NC(C)c1nc(C(F)(F)F)cc2c(-c3cccc([C@H](c4nncn4C)C4CCC4)c3)n[nH]c12 (single isomer, unassigned) [Example C34]
Ki (CBL-B (residues 36-427)): 8.9 nM | Ki (C-CBL (residues 46-435)): 88.5 nM | EC50 (CBL-B; [3]): 86 nM | EC50 (CBL-B; [1]): 67 nM | EC50 (C-CBL; [2]): 892 nM | EC50 (C-CBL; [4]): 428 nM

C[C@H](NC1CCCC1)c1nc(C(F)(F)F)cc2c(-c3cccc([C@H](c4nncn4C)C4CCC4)c3)n[nH]c12 (single isomer, unassigned) [Example C10]
Ki (CBL-B (residues 36-427)): 11.4 nM | Ki (C-CBL (residues 46-435)): 108 nM | EC50 (CBL-B; [1]): 233 nM | EC50 (C-CBL; [2]): > 2310 nM
